The test system of data set [1] is TA 1535.
Data set [2] relates to TA 100.
The subject of data set [3] is bacterial strains TA 1535, TA 1537, TA 1538, TA 98 and TA 100. Put plainly: Ames test for mutagenicity, revertant colony counts. Particulars: 50, 150, 500, 1500, 5000 μg/plate, with and without metabolic activation, five strains. On the technique in general: In the Ames test, an excess of revertant colonies over the control signals mutagenicity.
The test system is the same in data set [4]. Description: Preliminary test for toxicity to the bacterial strains (Ames test). The settings on record: for precipitates observed: 5000 μg dose, all strains.

As for `CN(C)N=O` [dimethylnitrosamine], in data set [1], the “mutagenic to TA 1535” value is “mutagenic”. The “mutagenic to TA 100” value in data set [2] is reported as “mutagenic”.

For the molecule N-nitrosodiisononylamine, in data set [3], the “increase of revertant colony counts over control values” (from here on “increase of revertant colony counts”) is recorded as “no increase of revertant colony counts over control values”.

In the case of `O=NN(Cc1ccccc1)Cc1ccccc1` [N-nitrosodibenzylamine], in data set [3], the “increase of revertant colony counts” value is recorded as “no increase of revertant colony counts over control values”. In addition, the precipitates observed result in data set [4] is “precipitates were observed”. Moreover, the “toxicity to the bacterial strains” value in data set [4] (doses up to and including 5000 μg/plate) was “non-toxic”.

With “zinc diisononyldithiocarbamate [Example 1]”, the “increase of revertant colony counts” value in data set [3] was “no increase of revertant colony counts over control values”. In addition, the precipitates observed result in data set [4] is given as “precipitates were observed”.

The record behind these values is patent publication US6162875A, “Low nitrosamine systems for rubber vulcanization” (Robinson Brothers Limited, priority 1992, dated 2000).
